According to patent US6958347B2, “Aminophenanthridinone and aminophenanthridine as NPY-5 antagonists” (Pfizer Inc., priority 2002, dated 2005):

Target: T1, Y1 (Homo sapiens, UniProt P25929)
T1 sequence (P25929 1-384): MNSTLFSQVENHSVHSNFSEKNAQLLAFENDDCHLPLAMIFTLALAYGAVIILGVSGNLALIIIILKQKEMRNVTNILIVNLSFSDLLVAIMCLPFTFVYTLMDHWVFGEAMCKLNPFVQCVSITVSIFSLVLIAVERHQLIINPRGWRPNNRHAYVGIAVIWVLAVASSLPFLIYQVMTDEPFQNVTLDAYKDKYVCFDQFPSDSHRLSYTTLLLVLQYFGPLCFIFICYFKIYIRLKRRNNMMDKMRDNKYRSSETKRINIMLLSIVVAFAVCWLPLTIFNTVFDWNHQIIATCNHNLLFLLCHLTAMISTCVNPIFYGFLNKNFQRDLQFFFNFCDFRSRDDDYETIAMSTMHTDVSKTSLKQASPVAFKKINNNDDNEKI
Assay: Endogenous NPY response of host Bowes melanoma cells (low levels of Y1 responses)
Conditions: 10 uM; human Bowes melanoma cells (HMCB)

Structure (SMILES): NC(N)=NCCC[C@@H](NC(=O)C(c1ccccc1)c1ccccc1)C(=O)NCc1ccc(O)cc1 [BIBP3226]
- block of the endogenous NPY response: completely blocks
